Results reported in PubChem BioAssay AID652146 (Broad Institute, 2013).

Target: Protein disulfide-isomerase (Homo sapiens) (UniProt P07237)
Assay: inhibition of PDI-mediated insulin reduction – biochemical, turbidity, dry powder samples, set 2, confirmation (AID 652146)
Settings: plate reader

Chain of Protein disulfide-isomerase (Homo sapiens) (P07237 whole entry, looked up): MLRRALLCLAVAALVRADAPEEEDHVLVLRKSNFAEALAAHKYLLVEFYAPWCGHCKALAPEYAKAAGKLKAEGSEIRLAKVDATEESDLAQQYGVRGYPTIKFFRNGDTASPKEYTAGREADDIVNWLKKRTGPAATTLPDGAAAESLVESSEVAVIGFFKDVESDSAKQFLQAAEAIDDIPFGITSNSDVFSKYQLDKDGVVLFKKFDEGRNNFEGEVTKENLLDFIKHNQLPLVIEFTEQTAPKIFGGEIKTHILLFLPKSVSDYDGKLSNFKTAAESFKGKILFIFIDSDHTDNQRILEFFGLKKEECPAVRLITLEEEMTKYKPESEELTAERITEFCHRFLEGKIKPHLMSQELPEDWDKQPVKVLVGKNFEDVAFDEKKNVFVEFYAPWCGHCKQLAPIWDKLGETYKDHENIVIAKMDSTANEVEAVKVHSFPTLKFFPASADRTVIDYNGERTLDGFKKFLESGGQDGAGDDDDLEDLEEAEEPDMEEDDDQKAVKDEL

- AC50: 100 nM
SMILES: CCOC(=O)C1(CCOc2ccccc2)CCN(Cc2ccc(O)c(Cl)c2)CC1
